The conditions of data set [1]: cited from earlier work.
Data set [2] in a line: Complications from use of the NaCl tablets in the test subjects. The conditions noted are these: Example II, 12 subjects, 250 mg tablets. It is filed as in vivo, human. How it is done: 12 representative persons would be treated by the inventive method, but with a 250 mg tablet of solid NaCI (except certain other ingredients also are incorporated into the tablets, for a total of 250 mg, for test subject nos. 11 and 12, as further discussed below).

Read-outs that look alike come from different tables or passages of the source.

For the compound `[Cl-].[Na+]` [NaCI, sodium chloride], the saturation in water result in data set [1] (0°C) is reported as “about 35.7 % by weight”; in data set [1] (room temperature (72°F, 22.2°C)), “about 32.6 % by weight”. Besides, the “complications from use of the tablets” value in data set [2] is given as “No complications”.

The record behind these values is patent US20040219173A1, “METHOD FOR TREATING HIV” (priority 2000, published 2004).
